Data on 37 molecules can be found in the supplement of paper PMC10949913.

Structures are written as SMILES.

Assay in all cases: area under concentration-response curve (viability) (AUC (a.u.)); higher = less active
Conditions in all cases: 48 h

In one assay the test system is NCI-H295R. The procedure, abridged:
(§1)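 Cells from three adrenocortical carcinoma lines were seeded at 500–1,000 cells/well in 5 µL medium in 1,536-well plates. Each library compound was added as 23 nL at 11 concentrations, and after 48 h CellTiter-Glo was added for 15 minutes at room temperature before reading luminescence. Plate-wise normalisation to vehicle and empty-well controls preceded curve fitting. AC50 and area under the curve were calculated only for inhibitory or non-responding curve classes.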

For another assay, the system named is CU-ACC2. A digest of the protocol:
as §1

Another assay has as its system CU-ACC1. The procedure, abridged: as §1

For `CC(=O)OCC(CCn1cnc2cnc(N)nc21)COC(C)=O`, the entries for the “area under concentration-response curve” value with NCI-H295R, in the assay on CU-ACC2 and with CU-ACC1 were 570, 596 and 565, respectively.
`O=C1CC[C@@]2(O)[C@H]3Cc4ccc(O)c5c4[C@@]2(CCN3CC2CC2)[C@H]1O5`: the “area under concentration-response curve” value in the assay on NCI-H295R came out at 559; with CU-ACC2, 623; in the assay on CU-ACC1, 413.
Consider `CC1(C)O[C@@H]2C[C@H]3[C@@H]4C[C@H](F)\C5=C\C(=O)\C=C/[C@]5(C)[C@H]4[C@@H](O)C[C@]3(C)[C@@]2(O1)C(=O)CO`, for which the “area under concentration-response curve” value is 588 with NCI-H295R, 622 with CU-ACC2 and 515 with CU-ACC1.
Taken in the same sequence, the figures for `CC(=O)OCCN1C(=O)c2c(C)nc3ccc([S+](=O)([O-])N4CCOCC4)cc3c2C1=O` were 581, 653 and 547.
The like results for `Nc1ncc(C(=O)NC2CN(C(=O)C3CC3)C2)c2ccc(-c3cccc(F)c3)nc12` were, in that order, 574, 647 and 538.
The like results for `O=c1sn(-c2cccc3ccccc23)c(=O)n1Cc1ccccc1` were, in that order, 433, 501 and 462.
Take `CN1CCN(C(=O)[C@H]2[C@@H](C(=O)O)[C@H]3CC[C@@H]2O3)CC1`: the “area under concentration-response curve” value in the assay with NCI-H295R is 620; in the assay with CU-ACC2, 699; in the assay with CU-ACC1, 628.
For the molecule `COC/1=C(\CNC(=O)C2=C(C)[N]([C@H](C)C3CCN(CC3)CC(F)(F)F)C4=C2C=CC=C4)C(=O)N/C(=C1)C`, the figures for the “area under concentration-response curve” value with NCI-H295R, in the assay on CU-ACC2 and in the assay on CU-ACC1 were 470, 556 and 453, respectively.
Taken in the same sequence, the figures for `Cc1cnc(Nc2cccc(CN3CCOCC3)c2)nc1Nc1cccc([S+](=O)([O-])NC(C)(C)C)c1` were 467, 508 and 453.
With `CC1=C(/C=C/C(C)=C/C=C/C(C)=C/C(=O)O)C(C)(C)CCC1`, the “area under concentration-response curve” value in the assay on NCI-H295R was found to be 476; in the assay on CU-ACC2 it was 592; with CU-ACC1, 503.
The like results for `Cc1c(N)nc([C@H](CC(N)=O)NC[C@@H](N)C(N)=O)nc1C(=O)N[C@H](C(=O)N[C@@H](C)[C@H](O)[C@@H](C)C(=O)N[C@@H](C(=O)NCCc1nc(-c2nc(C(=O)NCCC[S+](C)C)cs2)cs1)[C@@H](C)O)C(O[C@H]1O[C@H](CO)[C@H](O)[C@@H](O)[C@H]1O[C@H]1O[C@H](CO)[C@@H](O)[C@H](OC(N)=O)[C@@H]1O)c1c[nH]cn1` (stereo partly specified) were, in that order, 530, 614 and 508.
Take `CC(C)[C@H](N)C(=O)OCCOC[N]1C=NC2=C1\N=C(N)/NC2=O`: the “area under concentration-response curve” value in the assay on NCI-H295R is 390; in the assay on CU-ACC2, 394; in the assay with CU-ACC1 it was 449.
Taken in the same sequence, the figures for `COc1ccc(/C=C\c2cc(OC)c(OC)c(OC)c2)cc1NC(=O)[C@H](N)CO` were 521, 594 and 542.
Regarding `CC(C)c1cc(C(C)C)c(CC(=O)N[S+](=O)([O-])Oc2c(C(C)C)cccc2C(C)C)c(C(C)C)c1`, the entries for the “area under concentration-response curve” value in the assay with NCI-H295R, in the assay with CU-ACC2 and in the assay with CU-ACC1 were 480, 454 and 456, respectively.
The like results for `COC1=CC=C(C=C1)C/2=C(OC3O[C@@H](C)[C@H](O)[C@@H](O)[C@H]3O)/C(=O)C4=C(O2)C(=C(OC5O[C@H](CO)[C@@H](O)[C@H](O)[C@H]5O)C=C4O)CC=C(C)C` (stereo partly specified) were, in that order, 564, 624 and 510.
Take `OC(=O)C(CC/1=C/C(=O)NC2=CC=CC=C12)NC(=O)C3=CC=C(Cl)C=C3` (stereo unspecified): the “area under concentration-response curve” value is 483 with NCI-H295R, 610 in the assay on CU-ACC2 and 521 with CU-ACC1.
Taken in the same sequence, the figures for `CC(NCCc1ccc(O)cc1)C(O)c1ccc(O)cc1` (stereo unspecified) were 496, 592 and 523.
Taken in the same sequence, the figures for `CC(=O)NCCC(=O)N[C@@H](CCC(N)=O)C(=O)N[C@@H](CO)C(=O)N[C@@H](CCC(N)=O)C(=O)N[C@@H](CCC(N)=O)C(=O)N[C@H](C(=O)N[C@@H](Cc1ccccc1)C(=O)N[C@]1(C)CCCCCC/C=C\CCC[C@@](C)(C(=O)N[C@@H](CCC(N)=O)C(=O)N[C@@H](CC(N)=O)C(N)=O)NC(=O)[C@H](CC(C)C)NC(=O)[C@H](CC(C)C)NC(=O)[C@@H](CCCNC(=N)N)NC(=O)[C@H](Cc2c[nH]c3ccccc23)NC(=O)[C@H](CC(C)C)NC(=O)[C@H](CC(N)=O)NC1=O)[C@H](C)O` were 546, 575 and 425.
On to `O=C1N\C=N/C2=C1C=N[NH]2`, for which the “area under concentration-response curve” value in the assay on NCI-H295R was determined as 557; in the assay on CU-ACC2, 531; in the assay with CU-ACC1 it was 522.
As to `OCCn1cc(-c2cnc3nnn(Cc4ccc5ncccc5c4)c3n2)cn1`, the “area under concentration-response curve” value with NCI-H295R worked out at 543; with CU-ACC2, 600; in the assay on CU-ACC1 it was 497.
Take `C=C[C@H]1CN2CCC1C[C@@H]2[C@@H](O)c1ccnc2ccccc12` (stereo partly specified): the results for the “area under concentration-response curve” value in the assay on NCI-H295R, with CU-ACC2 and in the assay on CU-ACC1 were 486, 522 and 455, respectively.
Taken in the same sequence, the figures for `C#C[C@]1(O)CC[C@H]2[C@@H]3CCc4cc(OC)ccc4[C@H]3CC[C@@]21C` were 457, 475 and 414.
Taken in the same sequence, the figures for `NC(=O)c1ncn([C@@H]2O[C@H](CO)[C@@H](O)[C@H]2O)c1N` were 545, 519 and 418.
As for `O=C1Nc2ccc(I)cc2/C1=C/c1cc(Br)c(O)c(Br)c1`, the “area under concentration-response curve” value was 506 in the assay with NCI-H295R, 585 in the assay on CU-ACC2 and 500 with CU-ACC1.
For `OC1=CC2=C(C(=C1)O)C(=O)\C(=C(/O2)C3=CC(=C(O)C=C3)O)O`, the entries for the “area under concentration-response curve” value in the assay with NCI-H295R, in the assay on CU-ACC2 and in the assay on CU-ACC1 were 545, 607 and 499, respectively.
`CC(C)(CO)n1cc(C(=O)c2cncc(NC(=O)Cc3ccc(Cl)cn3)c2)c2cnc(N)nc21`: the “area under concentration-response curve” value in the assay on NCI-H295R was found to be 496; in the assay with CU-ACC2, 576; with CU-ACC1, 532.
The like results for `CN[C@@H](C)C(=O)N[C@H](C(=O)N1CCC[C@H]1C(=O)Nc1sc(-c2ncco2)nc1-c1ccccc1)C1CCCCC1` were, in that order, 461, 530 and 457.
On to `OC1=CC=C(C=C1)\C2=C(O)\C(=O)C3=C(O2)C=C(O)C=C3O`, for which the results for the “area under concentration-response curve” value in the assay on NCI-H295R, in the assay on CU-ACC2 and in the assay with CU-ACC1 were 484, 451 and 481, respectively.
Consider `COC1=CC(=CC=C1)C2=CC=C(NC(=O)/C3=C(/CCC3)C(O)=O)C(=C2)F`, for which the “area under concentration-response curve” value in the assay with NCI-H295R was 491; in the assay on CU-ACC2, 509; in the assay on CU-ACC1, 450.
As for `O=C(O)c1ccccc1-c1ccc(/C=c2\sc3nc4cc(Br)cnc4n3c2=O)o1`, the “area under concentration-response curve” value in the assay with NCI-H295R came out at 549; in the assay with CU-ACC2 it was 457; in the assay on CU-ACC1, 491.
Taken in the same sequence, the figures for `O=C1CCC(N2C(=O)c3ccccc3C2=O)C(=O)N1` (stereo unspecified) were 538, 602 and 535.
Taken in the same sequence, the figures for `CCn1c(=O)c2c(nc(/C=C/c3ccc(OC)c(OC)c3)n2C)n(CC)c1=O` were 431, 434 and 431.
On to `OC1=CC2=C(C(=O)\C=C(/O2)C3=CC=CC=C3)C(=C1O)O`, for which the results for the “area under concentration-response curve” value in the assay with NCI-H295R, in the assay on CU-ACC2 and with CU-ACC1 were 489, 462 and 458, respectively.
In the case of `COc1ccccc1N1CCN(CC(O)COc2cccc3ccccc23)CC1` (stereo unspecified), the “area under concentration-response curve” value came to 501 in the assay on NCI-H295R, 515 with CU-ACC2 and 458 in the assay with CU-ACC1.
The like results for `c1ccc2[nH]c(-c3cscn3)nc2c1` were, in that order, 556, 630 and 557.
The like results for `Cc1c(Cl)cccc1[S+](=O)([O-])Nc1nc(CCN2CCOCC2=O)cs1` were, in that order, 520, 583 and 483.
The like results for `O=C(NCC[S+](=O)([O-])c1ccc(C(F)(F)F)cn1)c1ccc(Cl)cc1` were, in that order, 544, 580 and 520.
